{"source": "patent US8557301B2", "about": "“Oral rehydration composition” (Drip Drop, Inc., priority 2011, dated 2013)", "origin": "cited, not measured here", "system": "net sodium and water absorption"}
{"smiles": "O=C(CO)[C@@H](O)[C@H](O)[C@H](O)CO", "note": "[fructose]", "values": [{"measurement": "effect on potassium transport", "result": "stimulates potassium absorption"}, {"measurement": "net sodium and water absorption stimulated, as much as glucose", "setting": "relative to glucose", "result": "66-100%"}]}
